Tests used:
Assay in all cases: fitness (endpoint OD595 vs no drug) (fraction); higher = more growth
S. aureus Newman = details: one replicate
Procedure, shortened: (§1)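 Each well of a 384-well plate received 30 µl of culture at OD595 0.01, or 55 µl for S. pneumoniae. TSB, LB Lennox or CY served as media at 37 °C. OD595 was taken every 30 min for 14 h and corrected by subtracting the first reading. Fitness is the optical density at stationary-phase entry divided by the robust mean of no-drug controls, capped at 1.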

S. pneumoniae D39V = test system: S. pneumoniae D39V
Procedure, shortened: as §1

S. aureus DSM 20231 = test system: S. aureus DSM 20231
Procedure, shortened: as §1

C/C(=C\C(=O)OCCCCCCCCC(=O)O)C[C@@H]1OC[C@H](C[C@@H]2O[C@H]2[C@@H](C)[C@H](C)O)[C@@H](O)[C@H]1O [Pseudomonic acid] + COc1c(N2C[C@@H]3CCCN[C@@H]3C2)c(F)cc2c(=O)c(C(=O)O)cn(C3CC3)c12 [Moxifloxacin]
fitness
Details | partner 0.0037 µg/mL | partner 0.005 µg/mL | partner 0.0075 µg/mL | partner 0.01 µg/mL | partner 0.015 µg/mL | partner 0.02 µg/mL | partner 0.03 µg/mL
S. aureus Newman, first compound 0.0313 µg/mL | – | – | 0.0642 | – | 0.0514 | – | 0.0387
S. aureus Newman, first compound 0.0625 µg/mL | – | – | 0.025 | – | 0.0242 | – | 0.0144
S. aureus Newman, first compound 0.125 µg/mL | – | – | 0.0349 | – | 0.0408 | – | 0.0169
S. pneumoniae D39V, first compound 0.03 µg/mL | 0.635 | 0.929 | 0.839 | 0.975 | 0.806 | 0.982 | –
S. pneumoniae D39V, first compound 0.06 µg/mL | 0.49 | 0.834 | 0.715 | 0.876 | 0.692 | 0.869 | –
S. pneumoniae D39V, first compound 0.12 µg/mL | 0.357 | 0.609 | 0.534 | 0.662 | 0.539 | 0.671 | –

C/C(=C\C(=O)OCCCCCCCCC(=O)O)C[C@@H]1OC[C@H](C[C@@H]2O[C@H]2[C@@H](C)[C@H](C)O)[C@@H](O)[C@H]1O [Pseudomonic acid] + C[n+]1ccc(-c2cc[n+](C)cc2)cc1 [Paraquat]
fitness
Details | partner 1.25 µg/mL | partner 1.5 µg/mL | partner 2.5 µg/mL | partner 3 µg/mL | partner 5 µg/mL | partner 6 µg/mL
S. aureus Newman, first compound 0.0313 µg/mL | 0.0626 | – | 0.0649 | – | 0.082 | –
S. aureus Newman, first compound 0.0625 µg/mL | 0.028 | – | 0.0373 | – | 0.0355 | –
S. aureus Newman, first compound 0.125 µg/mL | 0.0553 | – | 0.0338 | – | 0.0668 | –
S. pneumoniae D39V, first compound 0.03 µg/mL | – | 0.988 | – | 0.919 | – | 0.931
S. pneumoniae D39V, first compound 0.06 µg/mL | – | 0.837 | – | 0.78 | – | 0.779

C/C(=C\C(=O)OCCCCCCCCC(=O)O)C[C@@H]1OC[C@H](C[C@@H]2O[C@H]2[C@@H](C)[C@H](C)O)[C@@H](O)[C@H]1O [Pseudomonic acid] + Cc1onc(-c2ccccc2)c1C(=O)N[C@@H]1C(=O)N2[C@@H]1SC(C)(C)[C@@H]2C(=O)O [Oxacillin]
Details | fitness
S. aureus Newman, first compound 0.0313 µg/mL, partner 0.0156 µg/mL | 0.058
S. aureus Newman, first compound 0.0313 µg/mL, partner 0.0312 µg/mL | 0.0524
S. aureus Newman, first compound 0.0313 µg/mL, partner 0.0625 µg/mL | 0.0522
S. aureus Newman, first compound 0.0625 µg/mL, partner 0.0156 µg/mL | 0.0445
S. aureus Newman, first compound 0.0625 µg/mL, partner 0.0312 µg/mL | 0.0435
S. aureus Newman, first compound 0.0625 µg/mL, partner 0.0625 µg/mL | 0.0224
S. aureus Newman, first compound 0.125 µg/mL, partner 0.0156 µg/mL | 0.0455
S. aureus Newman, first compound 0.125 µg/mL, partner 0.0312 µg/mL | 0.0505
S. aureus Newman, first compound 0.125 µg/mL, partner 0.0625 µg/mL | 0.0295
S. pneumoniae D39V, first compound 0.03 µg/mL, partner 0.01 µg/mL | 0.948
S. pneumoniae D39V, first compound 0.03 µg/mL, partner 0.02 µg/mL | 0.95
S. pneumoniae D39V, first compound 0.06 µg/mL, partner 0.01 µg/mL | 0.835
S. pneumoniae D39V, first compound 0.06 µg/mL, partner 0.02 µg/mL | 0.819
S. pneumoniae D39V, first compound 0.06 µg/mL, partner 0.04 µg/mL | 0.717
S. pneumoniae D39V, first compound 0.12 µg/mL, partner 0.01 µg/mL | 0.589
S. pneumoniae D39V, first compound 0.12 µg/mL, partner 0.02 µg/mL | 0.562
S. pneumoniae D39V, first compound 0.12 µg/mL, partner 0.04 µg/mL | 0.424

COc1cc(Cc2cnc(N)nc2N)cc(OC)c1OC [Trimethoprim] + Cn1nnc(-c2ccc(-c3ccc(N4C[C@H](CO)OC4=O)cc3F)cn2)n1 [Tedizolid]
S. aureus DSM 20231, first compound 0.125 µg/mL, one replicate
Details | fitness
partner 0.0625 µg/mL | 0.846
partner 0.125 µg/mL | 0.575
partner 0.25 µg/mL | 0.289

fitness, S. aureus DSM 20231
Details | first compound 0.25 µg/mL | first compound 0.5 µg/mL | first compound 1 µg/mL
partner 0.0625 µg/mL | 0.623 | – | 0.0355
partner 0.125 µg/mL | 0.689 | 0.519 | 0.0418
partner 0.25 µg/mL | 0.502 | 0.39 | 0.192

Source: the supplement of paper PMC10627819
